From the NIST ThermoML archive (doi:10.1016/j.jct.2015.11.009)

Assays:
[1] = xn = mol fraction of the nth substance listed; settings: 100 kPa, Liquid, x1 = 1; for speed of sound: Frequency=3 MHz, Sing-around technique in a fixed-path interferometer; for mass density: Vibrating tube method
[2] = refractive index (Na D-line) (dimensionless); xn = mol fraction of the nth substance listed; settings: 100 kPa, Liquid, Standard Abbe refractometry, x1 = 1
[3] = 100 kPa, Liquid; for speed of sound: Frequency=3 MHz, Sing-around technique in a fixed-path interferometer; for mass density: Vibrating tube method
[4] = refractive index (Na D-line) (dimensionless); settings: 100 kPa, Liquid, Standard Abbe refractometry

CCCCn1cc[n+](C)c1.F[B-](F)(F)F [1-butyl-3-methylimidazolium tetrafluoroborate] + O=C1CCCN1
Settings | mass density, [1] [kg/m3] | refractive index, [2] | speed of sound, [1] [m/s]
298.15 K | 1198.78 | 1.42058 | 1565.1
303.15 K | 1195.18 | 1.41913 | 1553.2
308.15 K | 1191.6 | 1.41764 | 1541.3
313.15 K | 1188.04 | 1.41621 | 1529.7
318.15 K | 1184.5 | 1.41472 | 1518.2
323.15 K | 1180.98 | 1.4133 | 1506.8

O=C1CCCN1 [2-pyrrolidinone]
Settings | mass density, [3] [kg/m3] | refractive index, [4] | speed of sound, [3] [m/s]
298.15 K | 1107.16 | 1.48591 | 1634.4
303.15 K | 1103.07 | 1.48403 | 1618
308.15 K | 1098.99 | 1.48218 | 1601.6
313.15 K | 1094.9 | 1.48033 | 1585.4
318.15 K | 1090.82 | 1.47841 | 1570.4
323.15 K | 1086.75 | 1.47649 | 1553.5
